In ChEMBL document CHEMBL3351764, “Design, synthesis and biological activity of flavonoid derivatives as selective agonists for neuromedin U 2 receptor” (Bioorg Med Chem, 2014):
Activity calls are given as the source filed them.

Key:
[1] = target: Adrenocorticotropic hormone receptor (Homo sapiens) (UniProt Q01718); assay: Agonist activity at human MC2 receptor at 100 uM to 5 mM
[2] = target: D(1A) dopamine receptor (Homo sapiens) (UniProt P21728); assay: Agonist activity at human D1 receptor at 100 uM to 5 mM
[3] = target: T1, Neuropeptide Y receptor type 5 (Homo sapiens) (UniProt Q15761); assay: Agonist activity at human NPY5 receptor at 100 uM to 5 mM
T1 sequence (whole entry): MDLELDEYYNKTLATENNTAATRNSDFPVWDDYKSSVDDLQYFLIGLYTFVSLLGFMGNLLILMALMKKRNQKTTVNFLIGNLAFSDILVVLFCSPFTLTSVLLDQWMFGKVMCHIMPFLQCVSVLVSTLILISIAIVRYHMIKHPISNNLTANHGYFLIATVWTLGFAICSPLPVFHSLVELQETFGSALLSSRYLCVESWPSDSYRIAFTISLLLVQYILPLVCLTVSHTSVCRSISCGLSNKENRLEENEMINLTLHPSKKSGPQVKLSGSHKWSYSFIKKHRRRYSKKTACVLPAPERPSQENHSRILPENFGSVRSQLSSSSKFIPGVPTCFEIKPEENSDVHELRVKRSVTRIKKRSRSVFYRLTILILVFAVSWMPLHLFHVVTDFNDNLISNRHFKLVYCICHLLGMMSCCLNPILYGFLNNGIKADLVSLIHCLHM

[4] = target: Melanocortin receptor 4 (Mus musculus) (UniProt P56450); assay: Agonist activity at mouse MC4 receptor at 100 uM to 5 mM
[5] = target: T2, C5a anaphylatoxin chemotactic receptor 1 (Homo sapiens) (UniProt P21730); assay: Agonist activity at human C5a receptor at 100 uM to 5 mM
T2 sequence (whole entry): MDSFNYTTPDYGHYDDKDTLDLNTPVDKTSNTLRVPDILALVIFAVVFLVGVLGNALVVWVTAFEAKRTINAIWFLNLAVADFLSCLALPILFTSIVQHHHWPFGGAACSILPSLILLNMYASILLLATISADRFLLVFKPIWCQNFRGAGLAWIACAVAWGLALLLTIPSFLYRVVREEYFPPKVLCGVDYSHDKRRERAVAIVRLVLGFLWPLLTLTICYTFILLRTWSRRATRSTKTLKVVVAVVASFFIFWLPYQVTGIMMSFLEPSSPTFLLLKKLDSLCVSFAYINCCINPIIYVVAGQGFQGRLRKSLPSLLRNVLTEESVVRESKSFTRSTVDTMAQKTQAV

[6] = target: Glucagon receptor (Homo sapiens) (UniProt P47871); assay: Agonist activity at human Glu receptor at 100 uM to 5 mM
[7] = target: Melanocyte-stimulating hormone receptor (Homo sapiens) (UniProt Q01726); assay: Agonist activity at human MC1 receptor at 100 uM to 5 mM
[8] = target: D(1B) dopamine receptor (Homo sapiens) (UniProt P21918); assay: Agonist activity at human D5 receptor at 100 uM to 5 mM
[9] = target: Melanocortin receptor 4 (Homo sapiens) (UniProt P32245); assay: Agonist activity at human MC4 receptor at 100 uM to 5 mM
[10] = target: Melanocortin receptor 5 (Mus musculus) (UniProt P41149); assay: Agonist activity at mouse MC5 receptor at 100 uM to 5 mM
[11] = target: Adrenocorticotropic hormone receptor (Mus musculus) (UniProt Q64326); assay: Agonist activity at mouse MC2 receptor at 100 uM to 5 mM
[12] = target: T3, Muscarinic acetylcholine receptor M1 (Homo sapiens) (UniProt P11229); assay: Agonist activity at human M1 receptor at 100 uM to 5 mM
T3 sequence (whole entry): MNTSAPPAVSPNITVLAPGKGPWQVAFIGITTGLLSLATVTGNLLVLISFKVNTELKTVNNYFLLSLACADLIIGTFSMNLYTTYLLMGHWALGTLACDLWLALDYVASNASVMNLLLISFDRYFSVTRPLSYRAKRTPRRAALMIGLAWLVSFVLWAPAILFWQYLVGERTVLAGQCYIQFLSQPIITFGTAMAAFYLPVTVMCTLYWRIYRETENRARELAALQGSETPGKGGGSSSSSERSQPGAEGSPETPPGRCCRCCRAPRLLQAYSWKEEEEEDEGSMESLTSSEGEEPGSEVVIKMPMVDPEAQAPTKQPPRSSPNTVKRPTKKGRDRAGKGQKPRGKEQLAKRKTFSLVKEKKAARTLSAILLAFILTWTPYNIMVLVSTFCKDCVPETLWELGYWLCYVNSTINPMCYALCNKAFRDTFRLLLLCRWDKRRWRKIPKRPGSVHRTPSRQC

[13] = target: T4, Adenosine receptor A3 (Homo sapiens) (UniProt P0DMS8); assay: Agonist activity at human A3 receptor at 100 uM to 5 mM
T4 sequence (whole entry): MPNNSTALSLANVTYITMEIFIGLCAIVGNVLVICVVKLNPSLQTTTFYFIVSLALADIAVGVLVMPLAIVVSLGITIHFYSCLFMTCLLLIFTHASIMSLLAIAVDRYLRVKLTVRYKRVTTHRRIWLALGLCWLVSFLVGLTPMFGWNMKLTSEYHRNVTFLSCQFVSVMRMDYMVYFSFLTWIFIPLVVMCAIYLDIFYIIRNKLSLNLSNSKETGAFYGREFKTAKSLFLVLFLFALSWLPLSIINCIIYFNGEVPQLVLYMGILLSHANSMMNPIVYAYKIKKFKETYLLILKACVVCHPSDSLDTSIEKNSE

[14] = target: Adenosine receptor A2a (Homo sapiens) (UniProt P29274); assay: Agonist activity at human A2a receptor at 100 uM to 5 mM

Measured: Activity

Adenosine receptor A2a (Homo sapiens), sequence (P29274 whole entry): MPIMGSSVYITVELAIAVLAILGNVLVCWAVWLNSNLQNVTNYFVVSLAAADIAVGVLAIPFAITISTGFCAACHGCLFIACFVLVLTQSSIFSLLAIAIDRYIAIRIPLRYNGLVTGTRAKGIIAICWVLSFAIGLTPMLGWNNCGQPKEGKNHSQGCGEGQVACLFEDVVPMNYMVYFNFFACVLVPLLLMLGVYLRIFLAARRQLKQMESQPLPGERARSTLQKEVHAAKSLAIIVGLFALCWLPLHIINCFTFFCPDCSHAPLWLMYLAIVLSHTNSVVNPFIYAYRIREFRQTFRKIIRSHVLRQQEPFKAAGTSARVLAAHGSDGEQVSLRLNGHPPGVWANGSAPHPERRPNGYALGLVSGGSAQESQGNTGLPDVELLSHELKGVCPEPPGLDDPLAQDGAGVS
Glucagon receptor (Homo sapiens), sequence (P47871 whole entry): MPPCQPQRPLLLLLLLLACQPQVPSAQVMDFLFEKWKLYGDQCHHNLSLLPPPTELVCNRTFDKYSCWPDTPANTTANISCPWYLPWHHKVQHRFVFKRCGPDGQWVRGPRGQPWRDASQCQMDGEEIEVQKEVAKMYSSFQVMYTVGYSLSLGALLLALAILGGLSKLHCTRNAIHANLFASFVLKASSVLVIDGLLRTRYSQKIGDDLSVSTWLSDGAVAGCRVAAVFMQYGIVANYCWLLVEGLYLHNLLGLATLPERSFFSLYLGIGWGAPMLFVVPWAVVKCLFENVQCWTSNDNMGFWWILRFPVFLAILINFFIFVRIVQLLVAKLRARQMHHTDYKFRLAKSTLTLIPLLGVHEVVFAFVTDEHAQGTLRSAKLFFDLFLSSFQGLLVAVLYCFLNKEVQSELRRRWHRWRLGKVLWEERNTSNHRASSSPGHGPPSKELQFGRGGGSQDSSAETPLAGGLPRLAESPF
Adrenocorticotropic hormone receptor (Mus musculus), sequence (Q64326 whole entry): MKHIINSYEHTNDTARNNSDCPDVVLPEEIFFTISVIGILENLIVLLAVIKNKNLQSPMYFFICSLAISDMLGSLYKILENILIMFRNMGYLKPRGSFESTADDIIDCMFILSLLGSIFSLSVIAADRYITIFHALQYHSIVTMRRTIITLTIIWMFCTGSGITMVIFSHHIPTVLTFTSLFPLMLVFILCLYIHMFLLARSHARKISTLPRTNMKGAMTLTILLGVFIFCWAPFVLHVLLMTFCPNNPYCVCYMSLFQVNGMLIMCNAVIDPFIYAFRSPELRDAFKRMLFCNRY
D(1A) dopamine receptor (Homo sapiens), sequence (P21728 whole entry): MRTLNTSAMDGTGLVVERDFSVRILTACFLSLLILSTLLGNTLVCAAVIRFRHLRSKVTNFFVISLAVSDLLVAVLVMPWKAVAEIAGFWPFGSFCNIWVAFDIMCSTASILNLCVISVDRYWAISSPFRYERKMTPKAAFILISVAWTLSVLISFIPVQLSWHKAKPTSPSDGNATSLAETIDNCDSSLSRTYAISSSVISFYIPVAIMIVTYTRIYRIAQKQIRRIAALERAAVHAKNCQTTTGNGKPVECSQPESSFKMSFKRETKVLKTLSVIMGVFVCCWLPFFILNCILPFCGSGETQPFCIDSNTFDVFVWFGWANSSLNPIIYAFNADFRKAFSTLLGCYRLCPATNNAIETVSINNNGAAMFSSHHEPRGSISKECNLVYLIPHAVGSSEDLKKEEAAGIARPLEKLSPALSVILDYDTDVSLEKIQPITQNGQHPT
Adrenocorticotropic hormone receptor (Homo sapiens), sequence (Q01718 whole entry): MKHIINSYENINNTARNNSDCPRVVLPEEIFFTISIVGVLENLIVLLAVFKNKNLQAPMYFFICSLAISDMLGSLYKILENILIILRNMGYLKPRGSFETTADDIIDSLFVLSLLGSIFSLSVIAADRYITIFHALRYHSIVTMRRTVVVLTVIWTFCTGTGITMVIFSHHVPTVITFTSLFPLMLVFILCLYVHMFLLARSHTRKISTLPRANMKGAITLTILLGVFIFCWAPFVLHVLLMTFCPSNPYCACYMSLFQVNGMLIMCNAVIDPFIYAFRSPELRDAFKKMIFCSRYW
Melanocortin receptor 5 (Mus musculus), sequence (P41149 whole entry): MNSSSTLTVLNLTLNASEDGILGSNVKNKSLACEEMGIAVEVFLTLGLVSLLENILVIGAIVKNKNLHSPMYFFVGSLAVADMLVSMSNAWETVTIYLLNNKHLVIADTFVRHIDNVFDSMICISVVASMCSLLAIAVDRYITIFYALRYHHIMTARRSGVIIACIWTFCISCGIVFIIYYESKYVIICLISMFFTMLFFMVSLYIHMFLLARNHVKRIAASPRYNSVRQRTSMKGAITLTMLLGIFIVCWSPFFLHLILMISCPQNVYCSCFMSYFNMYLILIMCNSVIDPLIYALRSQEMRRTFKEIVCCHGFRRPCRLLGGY
D(1B) dopamine receptor (Homo sapiens), sequence (P21918 whole entry): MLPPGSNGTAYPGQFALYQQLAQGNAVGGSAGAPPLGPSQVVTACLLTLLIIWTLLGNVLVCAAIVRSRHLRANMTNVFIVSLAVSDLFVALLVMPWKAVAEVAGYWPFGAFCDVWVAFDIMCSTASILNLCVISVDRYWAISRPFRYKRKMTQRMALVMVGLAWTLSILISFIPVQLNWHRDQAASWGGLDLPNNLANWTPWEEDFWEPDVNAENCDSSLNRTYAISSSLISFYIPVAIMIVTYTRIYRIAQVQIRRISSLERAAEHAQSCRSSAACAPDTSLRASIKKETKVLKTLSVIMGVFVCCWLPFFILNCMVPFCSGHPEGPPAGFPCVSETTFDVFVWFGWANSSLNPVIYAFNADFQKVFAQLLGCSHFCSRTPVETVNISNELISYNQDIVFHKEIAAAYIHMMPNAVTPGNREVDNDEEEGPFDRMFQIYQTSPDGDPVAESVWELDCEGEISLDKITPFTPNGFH
Melanocortin receptor 4 (Mus musculus), sequence (P56450 whole entry): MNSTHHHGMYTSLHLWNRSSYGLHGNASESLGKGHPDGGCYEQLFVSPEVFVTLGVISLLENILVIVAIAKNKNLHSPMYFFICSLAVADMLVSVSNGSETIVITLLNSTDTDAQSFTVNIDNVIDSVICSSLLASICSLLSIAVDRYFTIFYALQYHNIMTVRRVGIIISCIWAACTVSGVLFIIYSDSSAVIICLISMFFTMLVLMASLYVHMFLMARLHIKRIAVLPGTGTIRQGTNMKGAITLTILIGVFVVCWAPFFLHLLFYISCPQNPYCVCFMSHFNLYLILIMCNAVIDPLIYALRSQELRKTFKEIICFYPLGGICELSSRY
Melanocyte-stimulating hormone receptor (Homo sapiens), sequence (Q01726 whole entry, looked up): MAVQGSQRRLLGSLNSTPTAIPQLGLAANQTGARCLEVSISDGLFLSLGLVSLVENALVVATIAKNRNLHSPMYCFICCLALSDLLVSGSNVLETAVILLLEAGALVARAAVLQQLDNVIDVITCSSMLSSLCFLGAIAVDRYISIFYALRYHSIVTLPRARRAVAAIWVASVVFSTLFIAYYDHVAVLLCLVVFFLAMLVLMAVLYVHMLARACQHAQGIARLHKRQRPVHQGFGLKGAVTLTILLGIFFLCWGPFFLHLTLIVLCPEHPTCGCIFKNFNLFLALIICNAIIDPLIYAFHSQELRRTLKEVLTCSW
Melanocortin receptor 4 (Homo sapiens), sequence (P32245 whole entry): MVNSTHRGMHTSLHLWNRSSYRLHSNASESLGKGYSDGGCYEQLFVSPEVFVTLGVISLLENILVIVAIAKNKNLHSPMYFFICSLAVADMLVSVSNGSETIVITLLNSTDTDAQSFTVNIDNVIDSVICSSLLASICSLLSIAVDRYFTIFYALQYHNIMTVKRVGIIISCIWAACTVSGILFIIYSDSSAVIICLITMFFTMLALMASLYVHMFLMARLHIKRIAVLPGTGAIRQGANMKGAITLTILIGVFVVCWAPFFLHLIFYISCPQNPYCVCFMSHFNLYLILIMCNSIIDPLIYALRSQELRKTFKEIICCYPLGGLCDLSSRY

O=c1c(OCCO)c(-c2cc(Br)ccc2F)oc2ccccc12
inactive: all assays above

O=c1c(O)c(-c2cc(Br)ccc2F)oc2ccccc12
inactive: all assays above

O=c1cc(-c2ccc(Cl)cc2Cl)oc2ccccc12
inactive: all assays above

O=c1c(O)c(-c2cccc(Cl)c2)oc2ccccc12
inactive: all assays above

COc1cc(-c2cc(=O)c3ccccc3o2)ccc1O
inactive: all assays above

COc1cc(-c2oc3ccccc3c(=O)c2O)ccc1O
inactive: all assays above

O=c1c(O)c(-c2ccc(O)cc2)oc2ccccc12
inactive: all assays above

O=c1c(O)c(-c2cccc(Cl)c2F)oc2ccccc12
inactive: all assays above

Fc1ccccc1C1C=Cc2ccccc2O1 (racemic)
inactive: all assays above

O=c1cc(-c2ccc(O)cc2)oc2ccccc12
inactive: all assays above

CN(C)c1ccc(C2C=Cc3ccccc3O2)cc1 (racemic)
inactive: all assays above

COc1c(-c2cc(Br)ccc2F)oc2ccccc2c1=O
inactive: all assays above

COc1ccc(-c2cc(=O)c3ccccc3o2)cc1O
inactive: all assays above
